The source made the active and inactive calls. How the calls were made is not given here.
Tested on: rodent lifetime carcinogenesis bioassay, tumor incidence TD50
Assay: carcinogenic potency in animals, long-term in vivo studies, CPDB compilation (AID 1745844)

SMILES: CCOC(=O)/C(Cl)=N/Nc1ccccc1
- TD50 (mouse, strain B6C3F1, females, in feed, site: pituitary gland, lesion: adenoma, NOS, dosed 103 weeks, study length 104 weeks): 20200 mg/kg/day (inactive)
- TD50 (mouse, strain B6C3F1, females, in feed, site: uterus, lesion: endometrial stromal polyp, dosed 103 weeks, study length 104 weeks): 86500 mg/kg/day
- TD50 (mouse, strain B6C3F1, males, in feed, site: lung, lesion: alveolar/bronchiolar adenoma, dosed 103 weeks, study length 104 weeks): 7160 mg/kg/day (inactive)
- TD50 (rat, strain Fischer 344, females, in feed, site: adrenal gland, lesion: cortical adenoma, dosed 103 weeks, study length 105 weeks): 11900 mg/kg/day (inactive)
- TD50 (rat, strain Fischer 344, females, in feed, site: any site (literature study), lesion: several types, types named in the paper, dosed 103 weeks, study length 105 weeks): 29500 mg/kg/day
- carcinogen call (rat, strain Fischer 344, males, in feed, site: any site (literature study), lesion: several types, types named in the paper, dosed 103 weeks, study length 105 weeks): negative (inactive)
- TD50 (rat, strain Fischer 344, males, in feed, site: liver, lesion: hepatocellular adenoma + hepatocellular carcinoma + neoplastic nodule, dosed 103 weeks, study length 105 weeks): 516000 mg/kg/day

SMILES: O=C(O)c1ccc([N+](=O)[O-])cc1
- TD50 (mouse, strain B6C3F1, females, in feed, site: any site (literature study), lesion: several types, types named in the paper, dosed 103 weeks, study length 104 weeks): 3160 mg/kg/day (inactive)
- TD50 (mouse, strain B6C3F1, females, in feed, site: lung, lesion: alveolar/bronchiolar adenoma + alveolar/bronchiolar carcinoma, dosed 103 weeks, study length 104 weeks): 2330 mg/kg/day
- carcinogen call (mouse, strain B6C3F1, males, in feed, site: any site (literature study), lesion: several types, types named in the paper, dosed 103 weeks, study length 104 weeks): negative (inactive)
- TD50 (mouse, strain B6C3F1, males, in feed, site: lung, lesion: alveolar/bronchiolar adenoma + alveolar/bronchiolar carcinoma, dosed 103 weeks, study length 104 weeks): 4350 mg/kg/day
- TD50 (rat, strain Fischer 344, females, in feed, site: any site (literature study), lesion: several types, types named in the paper, dosed 103 weeks, study length 104 weeks): 373 mg/kg/day
- TD50 (rat, strain Fischer 344, females, in feed, site: clitoral gland, lesion: adenoma + adenoma, bilateral + carcinoma + carcinoma, bilateral, dosed 103 weeks, study length 104 weeks): 287 mg/kg/day
- TD50 (rat, strain Fischer 344, females, in feed, site: clitoral gland, lesion: adenoma + adenoma, bilateral, dosed 103 weeks, study length 104 weeks): 439 mg/kg/day
- TD50 (rat, strain Fischer 344, females, in feed, site: clitoral gland, lesion: carcinoma + carcinoma, bilateral, dosed 103 weeks, study length 104 weeks): 1080 mg/kg/day
- TD50 (rat, strain Fischer 344, females, in feed, site: uterus, lesion: endometrial stromal polyp + endometrial stromal sarcoma, dosed 103 weeks, study length 104 weeks): 197 mg/kg/day
- TD50 (rat, strain Fischer 344, females, in feed, site: uterus, lesion: endometrial stromal polyp, dosed 103 weeks, study length 104 weeks): 220 mg/kg/day
- TD50 (rat, strain Fischer 344, males, in feed, site: preputial gland, lesion: carcinoma + carcinoma, bilateral, dosed 103 weeks, study length 104 weeks): 926 mg/kg/day (inactive)

SMILES: ClC1(Cl)C2(Cl)C3C4(Cl)C1(Cl)C1(Cl)C4(Cl)C(Cl)(Cl)C3(Cl)C21Cl (centres undefined)
- TD50 (rat, strain Sprague-Dawley, males, in feed, site: liver, lesion: neoplastic nodule, dosed 91 weeks, study length 91 weeks): 6.68 mg/kg/day
- TD50 (rat, strain Sprague-Dawley, males, in feed, site: thyroid gland, lesion: adenoma, dosed 91 weeks, study length 91 weeks): 1.46 mg/kg/day

SMILES: CCCCCN(N=O)C(=O)OCC
- TD50 (rat, strain Donryu, females, in drinking water, site: any site (literature study), lesion: several types, types named in the paper, dosed 52 weeks, study length 60 weeks): 0.336 mg/kg/day
- TD50 (rat, strain Donryu, females, in drinking water, site: esophagus, lesion: papilloma, dosed 52 weeks, study length 60 weeks): 1.46 mg/kg/day
- TD50 (rat, strain Donryu, females, in drinking water, site: esophagus, lesion: squamous-cell carcinoma, dosed 52 weeks, study length 60 weeks): 1.01 mg/kg/day
- TD50 (rat, strain Donryu, females, in drinking water, site: forestomach, lesion: papilloma, dosed 52 weeks, study length 60 weeks): 1.54 mg/kg/day
- TD50 (rat, strain Donryu, females, in drinking water, site: forestomach, lesion: squamous-cell carcinoma, dosed 52 weeks, study length 60 weeks): 2.81 mg/kg/day
- TD50 (rat, strain Donryu, females, in drinking water, site: several sites, sites named in the paper, lesion: papilloma, dosed 52 weeks, study length 60 weeks): 1.7 mg/kg/day
- TD50 (rat, strain Donryu, females, in drinking water, site: several sites, sites named in the paper, lesion: squamous-cell carcinoma, dosed 52 weeks, study length 60 weeks): 1.09 mg/kg/day

SMILES: CC(C)Oc1ccc(Nc2ccccc2)cc1
- TD50 (mouse, strain B6AKF1, females, oral dosing, site: any site (literature study), lesion: several types, types named in the paper, dosed 76 weeks, study length 76 weeks): 1200 mg/kg/day (inactive)
- TD50 (mouse, strain B6AKF1, females, oral dosing, site: liver, lesion: angioma, dosed 76 weeks, study length 76 weeks): 2650 mg/kg/day (inactive)
- carcinogen call (mouse, strain B6AKF1, females, oral dosing, site: lung, lesion: adenoma, dosed 76 weeks, study length 76 weeks): negative (inactive)
- TD50 (mouse, strain B6AKF1, males, oral dosing, site: any site (literature study), lesion: several types, types named in the paper, dosed 76 weeks, study length 76 weeks): 985 mg/kg/day (inactive)
- TD50 (mouse, strain B6AKF1, males, oral dosing, site: liver, lesion: hepatoma, dosed 76 weeks, study length 76 weeks): 1130 mg/kg/day (inactive)
- TD50 (mouse, strain B6AKF1, males, oral dosing, site: lung, lesion: adenoma, dosed 76 weeks, study length 76 weeks): 2180 mg/kg/day (inactive)
- TD50 (mouse, strain B6C3F1, females, oral dosing, site: any site (literature study), lesion: several types, types named in the paper, dosed 76 weeks, study length 76 weeks): 1290 mg/kg/day (inactive)
- TD50 (mouse, strain B6C3F1, females, oral dosing, site: liver, lesion: hepatoma, dosed 76 weeks, study length 76 weeks): 2650 mg/kg/day (inactive)
- carcinogen call (mouse, strain B6C3F1, females, oral dosing, site: lung, lesion: several types, types named in the paper, dosed 76 weeks, study length 76 weeks): negative (inactive)
- TD50 (mouse, strain B6C3F1, males, oral dosing, site: any site (literature study), lesion: several types, types named in the paper, dosed 76 weeks, study length 76 weeks): 300 mg/kg/day (inactive)
- TD50 (mouse, strain B6C3F1, males, oral dosing, site: liver, lesion: hepatoma, dosed 76 weeks, study length 76 weeks): 679 mg/kg/day (inactive)
- TD50 (mouse, strain B6C3F1, males, oral dosing, site: lung, lesion: adenoma, dosed 76 weeks, study length 76 weeks): 2180 mg/kg/day (inactive)

SMILES: CC1=CC(=C(c2ccc(N)cc2)c2ccc(N)cc2)C=CC1=N
- carcinogen call (hamster, strain Syrian Golden, females, by gavage, site: any site (literature study), lesion: several types, types named in the paper, dosed 68 weeks, study length 68 weeks): negative (inactive)
- carcinogen call (hamster, strain Syrian Golden, males, by gavage, site: any site (literature study), lesion: several types, types named in the paper, dosed 84 weeks, study length 84 weeks): negative (inactive)
- TD50 (hamster, strain Syrian Golden, males, by gavage, site: lung, lesion: bronchiolar adenoma, dosed 84 weeks, study length 84 weeks): 2020 mg/kg/day (inactive)
- carcinogen call (rat, strain Sprague-Dawley, females, by gavage, site: any site (literature study), lesion: several types, types named in the paper, dosed 107 weeks, study length 107 weeks): negative (inactive)
- carcinogen call (rat, strain Sprague-Dawley, males, by gavage, site: any site (literature study), lesion: several types, types named in the paper, dosed 111 weeks, study length 111 weeks): negative (inactive)

SMILES: CCCCCC(N)=O
- carcinogen call (mouse, strain C57BL/6, females, in feed, site: liver, lesion: hepatocellular carcinoma, dosed 52 weeks, study length 69 weeks): negative (inactive)
- TD50 (mouse, strain C57BL/6, females, in feed, site: lung, lesion: alveolar/bronchiolar adenoma, dosed 52 weeks, study length 69 weeks): 37200 mg/kg/day (inactive)
- TD50 (mouse, strain C57BL/6, females, in feed, site: stomach, lesion: squamous-cell papilloma, dosed 52 weeks, study length 69 weeks): 8900 mg/kg/day
- TD50 (mouse, strain C57BL/6, males, in feed, site: all sites, lesion: malignant lymphoma, histiocytic type, dosed 52 weeks, study length 69 weeks): 2140 mg/kg/day
- TD50 (mouse, strain C57BL/6, males, in feed, site: all sites, lesion: several types, types named in the paper, dosed 52 weeks, study length 69 weeks): 1950 mg/kg/day
- TD50 (mouse, strain C57BL/6, males, in feed, site: liver, lesion: hemangiosarcoma, dosed 52 weeks, study length 69 weeks): 25300 mg/kg/day (inactive)
- TD50 (mouse, strain C57BL/6, males, in feed, site: liver, lesion: malignant lymphoma, histiocytic type, dosed 52 weeks, study length 69 weeks): 25300 mg/kg/day
- TD50 (mouse, strain C57BL/6, males, in feed, site: lung, lesion: alveolar/bronchiolar adenoma, dosed 52 weeks, study length 69 weeks): 3490 mg/kg/day (inactive)
- TD50 (mouse, strain C57BL/6, males, in feed, site: multiple organs, lesion: malignant lymphoma, histiocytic type, dosed 52 weeks, study length 69 weeks): 2660 mg/kg/day
- carcinogen call (rat, strain Fischer 344, females, in feed, site: liver, lesion: one or several types, types not named, dosed 52 weeks, study length 69 weeks): negative (inactive)
- carcinogen call (rat, strain Fischer 344, males, in feed, site: liver, lesion: one or several types, types not named, dosed 52 weeks, study length 69 weeks): negative (inactive)

SMILES: COc1cc(N)ccc1N=Nc1ccccc1
- carcinogen call (mouse, strain B6C3F1, females, in feed, site: liver, lesion: one or several types, types not named, dosed 56 weeks, study length 56 weeks): negative (inactive)
- carcinogen call (mouse, strain B6C3F1, males, in feed, site: liver, lesion: one or several types, types not named, dosed 56 weeks, study length 56 weeks): negative (inactive)

SMILES: CC[C@H](C)C(=O)O[C@H]1C[C@@H](C)C=C2C=C[C@H](C)[C@H](CC[C@@H]3C[C@@H](O)CC(=O)O3)[C@H]21
- TD50 (mouse, strain Charles River CD1, females, by gavage, site: forestomach, lesion: squamous-cell carcinoma, dosed 92 weeks, study length 92 weeks): 38400 mg/kg/day
- TD50 (mouse, strain Charles River CD1, females, by gavage, site: forestomach, lesion: squamous-cell papilloma, dosed 92 weeks, study length 92 weeks): 1020 mg/kg/day
- TD50 (mouse, strain Charles River CD1, females, by gavage, site: liver, lesion: hepatocellular carcinoma, dosed 92 weeks, study length 92 weeks): 2240 mg/kg/day
- TD50 (mouse, strain Charles River CD1, females, by gavage, site: liver, lesion: several types, types named in the paper, dosed 92 weeks, study length 92 weeks): 623 mg/kg/day
- TD50 (mouse, strain Charles River CD1, females, by gavage, site: lung, lesion: adenocarcinoma, dosed 92 weeks, study length 92 weeks): 57400 mg/kg/day
- TD50 (mouse, strain Charles River CD1, females, by gavage, site: lung, lesion: alveolar-cell adenoma, dosed 92 weeks, study length 92 weeks): 1220 mg/kg/day
- TD50 (mouse, strain Charles River CD1, males, by gavage, site: forestomach, lesion: squamous-cell papilloma, dosed 92 weeks, study length 92 weeks): 8550 mg/kg/day
- TD50 (mouse, strain Charles River CD1, males, by gavage, site: liver, lesion: hepatocellular carcinoma, dosed 92 weeks, study length 92 weeks): 708 mg/kg/day
- TD50 (mouse, strain Charles River CD1, males, by gavage, site: liver, lesion: several types, types named in the paper, dosed 92 weeks, study length 92 weeks): 439 mg/kg/day
- TD50 (rat, strain Charles River CD (Sprague-Dawley), females, by gavage, site: liver, lesion: hepatocellular adenoma, dosed 105 weeks, study length 105 weeks): 19900 mg/kg/day (inactive)
- carcinogen call (rat, strain Charles River CD (Sprague-Dawley), males, by gavage, site: liver, lesion: hepatocellular adenoma, dosed 105 weeks, study length 105 weeks): negative (inactive)
- TD50 (rat, strain Charles River CD (Sprague-Dawley), males, by gavage, site: liver, lesion: hepatocellular carcinoma, dosed 105 weeks, study length 105 weeks): 2330 mg/kg/day (inactive)

From PubChem BioAssay AID1745844 (Carcinogenic Potency Database (CPDB), 2022)
